Numbers after ± are expanded uncertainties.
Assay: molar heat capacity at constant pressure
Details: 101.33 kPa, Crystal, Small sample (50 mg) DSC

Structure (SMILES): [Ca+2].[O]=[Mo](=[O])([O-])[O-] [calcium molybdate(VI)]
- molar heat capacity at constant pressure (395.5 K): 127.3 ± 5.4 J/K/mol
- molar heat capacity at constant pressure (396.4 K): 127.5 ± 5.4 J/K/mol
- molar heat capacity at constant pressure (396.5 K): 127.4 ± 5.4 J/K/mol
- molar heat capacity at constant pressure (397.4 K): 127.6 ± 5.4 J/K/mol
- molar heat capacity at constant pressure (397.5 K): 127.6 ± 5.4 J/K/mol
- molar heat capacity at constant pressure (398.4 K): 127.6 ± 5.4 J/K/mol
- molar heat capacity at constant pressure (398.5 K): 127.7 ± 5.4 J/K/mol
- molar heat capacity at constant pressure (399.4 K): 127.7 ± 5.4 J/K/mol
- molar heat capacity at constant pressure (399.5 K): 127.8 ± 5.4 J/K/mol
- molar heat capacity at constant pressure (400 K): 127.9 ± 5.4 J/K/mol
- molar heat capacity at constant pressure (400.4 K): 127.8 ± 5.4 J/K/mol
- molar heat capacity at constant pressure (400.5 K): 127.9 ± 5.4 J/K/mol
- molar heat capacity at constant pressure (401.4 K): 127.9 ± 5.4 J/K/mol
- molar heat capacity at constant pressure (401.5 K): 128 ± 5.4 J/K/mol
- molar heat capacity at constant pressure (402.4 K): 128.1 ± 5.4 J/K/mol
- molar heat capacity at constant pressure (402.5 K): 128.1 ± 5.4 J/K/mol
- molar heat capacity at constant pressure (403.4 K): 128.2 ± 5.4 J/K/mol
- molar heat capacity at constant pressure (403.5 K): 128.2 ± 5.4 J/K/mol
- molar heat capacity at constant pressure (404.4 K): 128.3 ± 5.4 J/K/mol
- molar heat capacity at constant pressure (404.5 K): 128.3 ± 5.4 J/K/mol
- molar heat capacity at constant pressure (405.4 K): 128.5 ± 5.5 J/K/mol
- molar heat capacity at constant pressure (405.5 K): 128.3 ± 5.4 J/K/mol
- molar heat capacity at constant pressure (406.4 K): 128.6 ± 5.5 J/K/mol
- molar heat capacity at constant pressure (406.5 K): 128.4 ± 5.4 J/K/mol
- molar heat capacity at constant pressure (407.4 K): 128.7 ± 5.5 J/K/mol
- molar heat capacity at constant pressure (407.5 K): 128.5 ± 5.5 J/K/mol
- molar heat capacity at constant pressure (408.4 K): 128.7 ± 5.5 J/K/mol
- molar heat capacity at constant pressure (408.5 K): 128.6 ± 5.5 J/K/mol
- molar heat capacity at constant pressure (409.4 K): 128.8 ± 5.5 J/K/mol
- molar heat capacity at constant pressure (409.5 K): 128.7 ± 5.5 J/K/mol
- molar heat capacity at constant pressure (410 K): 128.9 ± 5.5 J/K/mol
- molar heat capacity at constant pressure (410.4 K): 128.9 ± 5.5 J/K/mol
- molar heat capacity at constant pressure (410.5 K): 128.8 ± 5.5 J/K/mol
- molar heat capacity at constant pressure (411.4 K): 129 ± 5.5 J/K/mol
- molar heat capacity at constant pressure (411.5 K): 128.9 ± 5.5 J/K/mol
- molar heat capacity at constant pressure (412.4 K): 129 ± 5.5 J/K/mol
- molar heat capacity at constant pressure (412.5 K): 129 ± 5.5 J/K/mol
- molar heat capacity at constant pressure (413.4 K): 129.1 ± 5.5 J/K/mol
- molar heat capacity at constant pressure (413.5 K): 129.1 ± 5.5 J/K/mol
- molar heat capacity at constant pressure (414.4 K): 129.2 ± 5.5 J/K/mol
- molar heat capacity at constant pressure (414.5 K): 129.2 ± 5.5 J/K/mol
- molar heat capacity at constant pressure (415.4 K): 129.4 ± 5.5 J/K/mol
- molar heat capacity at constant pressure (415.5 K): 129.3 ± 5.5 J/K/mol
- molar heat capacity at constant pressure (416.4 K): 129.5 ± 5.5 J/K/mol
- molar heat capacity at constant pressure (416.5 K): 129.4 ± 5.5 J/K/mol
- molar heat capacity at constant pressure (417.4 K): 129.6 ± 5.5 J/K/mol
- molar heat capacity at constant pressure (417.5 K): 129.5 ± 5.5 J/K/mol
- molar heat capacity at constant pressure (418.4 K): 129.7 ± 5.5 J/K/mol
- molar heat capacity at constant pressure (418.5 K): 129.6 ± 5.5 J/K/mol
- molar heat capacity at constant pressure (419.4 K): 129.8 ± 5.5 J/K/mol
- molar heat capacity at constant pressure (419.5 K): 129.7 ± 5.5 J/K/mol
- molar heat capacity at constant pressure (420 K): 129.8 ± 5.5 J/K/mol
- molar heat capacity at constant pressure (420.4 K): 129.9 ± 5.5 J/K/mol
- molar heat capacity at constant pressure (420.5 K): 129.8 ± 5.5 J/K/mol
- molar heat capacity at constant pressure (421.4 K): 130 ± 5.5 J/K/mol
- molar heat capacity at constant pressure (421.5 K): 129.9 ± 5.5 J/K/mol
- molar heat capacity at constant pressure (422.4 K): 130.1 ± 5.5 J/K/mol
- molar heat capacity at constant pressure (422.5 K): 130 ± 5.5 J/K/mol
- molar heat capacity at constant pressure (423.4 K): 130.2 ± 5.5 J/K/mol
- molar heat capacity at constant pressure (423.5 K): 130.1 ± 5.5 J/K/mol
- molar heat capacity at constant pressure (424.4 K): 130.3 ± 5.5 J/K/mol
- molar heat capacity at constant pressure (424.6 K): 130.1 ± 5.5 J/K/mol
- molar heat capacity at constant pressure (425.4 K): 130.4 ± 5.5 J/K/mol
- molar heat capacity at constant pressure (425.6 K): 130.2 ± 5.5 J/K/mol
- molar heat capacity at constant pressure (426.4 K): 130.5 ± 5.5 J/K/mol
- molar heat capacity at constant pressure (426.6 K): 130.3 ± 5.5 J/K/mol
- molar heat capacity at constant pressure (427.4 K): 130.6 ± 5.5 J/K/mol
- molar heat capacity at constant pressure (427.6 K): 130.4 ± 5.5 J/K/mol
- molar heat capacity at constant pressure (428.4 K): 130.7 ± 5.5 J/K/mol
- molar heat capacity at constant pressure (428.6 K): 130.5 ± 5.5 J/K/mol
- molar heat capacity at constant pressure (429.4 K): 130.7 ± 5.5 J/K/mol
- molar heat capacity at constant pressure (429.6 K): 130.7 ± 5.5 J/K/mol
- molar heat capacity at constant pressure (430 K): 130.7 ± 5.5 J/K/mol
- molar heat capacity at constant pressure (430.4 K): 130.8 ± 5.5 J/K/mol
- molar heat capacity at constant pressure (430.6 K): 130.9 ± 5.6 J/K/mol
- molar heat capacity at constant pressure (431.4 K): 130.8 ± 5.5 J/K/mol
- molar heat capacity at constant pressure (431.6 K): 131 ± 5.6 J/K/mol
- molar heat capacity at constant pressure (432.4 K): 130.8 ± 5.5 J/K/mol
- molar heat capacity at constant pressure (432.6 K): 131.1 ± 5.6 J/K/mol
- molar heat capacity at constant pressure (433.4 K): 130.9 ± 5.6 J/K/mol
- molar heat capacity at constant pressure (433.6 K): 131.2 ± 5.6 J/K/mol
- molar heat capacity at constant pressure (434.4 K): 130.9 ± 5.6 J/K/mol
- molar heat capacity at constant pressure (434.6 K): 131.3 ± 5.6 J/K/mol
- molar heat capacity at constant pressure (435.4 K): 131 ± 5.6 J/K/mol
- molar heat capacity at constant pressure (435.6 K): 131.3 ± 5.6 J/K/mol
- molar heat capacity at constant pressure (436.4 K): 131 ± 5.6 J/K/mol
- molar heat capacity at constant pressure (436.6 K): 131.3 ± 5.6 J/K/mol
- molar heat capacity at constant pressure (437.4 K): 131.1 ± 5.6 J/K/mol
- molar heat capacity at constant pressure (437.6 K): 131.4 ± 5.6 J/K/mol
- molar heat capacity at constant pressure (438.4 K): 131.2 ± 5.6 J/K/mol
- molar heat capacity at constant pressure (438.6 K): 131.4 ± 5.6 J/K/mol
- molar heat capacity at constant pressure (439.4 K): 131.3 ± 5.6 J/K/mol
- molar heat capacity at constant pressure (439.6 K): 131.4 ± 5.6 J/K/mol
- molar heat capacity at constant pressure (440 K): 131.5 ± 5.6 J/K/mol
- molar heat capacity at constant pressure (440.4 K): 131.4 ± 5.6 J/K/mol
- molar heat capacity at constant pressure (440.6 K): 131.5 ± 5.6 J/K/mol
- molar heat capacity at constant pressure (441.4 K): 131.5 ± 5.6 J/K/mol
- molar heat capacity at constant pressure (441.6 K): 131.6 ± 5.6 J/K/mol
- molar heat capacity at constant pressure (442.4 K): 131.6 ± 5.6 J/K/mol
- molar heat capacity at constant pressure (442.6 K): 131.7 ± 5.6 J/K/mol
- molar heat capacity at constant pressure (443.4 K): 131.7 ± 5.6 J/K/mol
- molar heat capacity at constant pressure (443.6 K): 131.9 ± 5.6 J/K/mol
- molar heat capacity at constant pressure (444.4 K): 131.7 ± 5.6 J/K/mol
- molar heat capacity at constant pressure (444.6 K): 132 ± 5.6 J/K/mol

From the NIST ThermoML archive (doi:10.1016/j.tca.2018.01.023)
